Tested on: NGN3-HA overexpressed in 293T cells
Assay: Western blot analysis of overexpressed NGN3-HA in 293T cells upon GSK3 inhibitor
Format: cell-based
Details: HEK293T cells overexpressing NGN3-HA, treated with GSK3β inhibitor; Western blot (FIG. 6b)
Description: (A) Schematic representation of the proposed mechanism of NGN3 degradation by Fbw7. (B) Western Blot analysis of overexpressed NGN3-HA in 293T cells upon GSK3 inhibitor. (C) Schematic representation of NGN3 GSK3 phosphorylation residues and the different NGN3 phospho-mutant construct generated. (D) NGN3-HA/Fbw7-Flag Immunoprecipitation assay using the different NGN3 constructs indicated in C. (E) Western Blot analysis of NGN3 in cells overexpressing the different NGN3 construct indicated in C. HEK293T cells were cultured in DMEM and 10% FBS. Cells were plated at subconfluence and transfected with Lipofectamine Reagent (Invitrogen) following the manufacturer instructions. HEK293T cells lysates or tissues were homogenized in RIPA lysis buffer supplemented with protease inhibitor (Sigma). Immunoblots were carried out as previously described^4. The gels were transferred to nitrocellulose membranes, and the membranes were immunoblotted with various antibodies as indicated: anti-NGN3, anti-flag, anti-HA, and anti-Myc. The conversion of pancreatic ductal cells into β-cells observed in the RFY mice in vivo could be due to up-regulation of substrates involved in beta cell neogenesis in the adult pancreas. […] To test whether Fbw7 had any effect on NGN3 protein stability (see FIG. 6a), a set of in vitro experiments were conducted. […]

Question: For `Cn1cc(C2=C(c3ccc(Cl)cc3Cl)C(=O)NC2=O)c2ccccc21` [SB216763], which NGN3 protein stability is on record?
Answer: increased

Reference: patent US20150322406A1, “METHOD FOR REPROGRAMMING SOMATIC CELLS TO PANCREATIC BETA CELLS” (CANCER RESEARCH TECHNOLOGY LIMITED, priority 2012, published 2015)
